Source: patent US8580775B2, “Use of derivatives of sinapinic acid and compositions comprising such derivatives” (Cognis IP Management GmbH, priority 2007, dated 2013)

Test system: Melanocytes (B16 cell line)
Experiment: Melanogenesis Inhibition Assay
Type: cell-based
Conditions: for Protein level (rate of cellular proteins) / Melanin level: B16 melanocytes, 3 days incubation, mean +/− SEM; for Protein level (rate of cellular proteins): Bradford's method; for Melanin level: optical density at 475 nm
Procedure: Melanocytes (B16 cell line) were inoculated in standard medium of cell culture with foetal calf serum (FCS). After an incubation of 3 days at 37° C. under 5% CO2, growth medium was exchanged for standard medium with a range of concentrations for each compound to be tested and a control without ingredient. After an incubation of 3 days, the level of melanin was measured by recording the optical density at 475 nm. After washing the cells with a balanced salt buffer, and homogenisation in a solution of 0.1 M NaOH, the number of viable cells was determined by evaluation of the level of cellular proteins (Bradford's method).
The results are expressed in % against control (cell culture medium without compound) as a mean+/−SEM (Standard Error of Mean) on 2 or 3 assays, each in triplicate.

SMILES | Protein level (rate of cellular proteins) (dose 0.0003 % (w/v)) | Melanin level (dose 0.0003 % (w/v)) | Protein level (rate of cellular proteins) (dose 0.001 % (w/v)) | Melanin level (dose 0.001 % (w/v)) | Protein level (rate of cellular proteins) (dose 0.003 % (w/v)) | Melanin level (dose 0.003 % (w/v)) | Protein level (rate of cellular proteins) (dose 0.01 % (w/v)) | Melanin level (dose 0.01 % (w/v)) | cell toxicity (summary in words of Table 3) | rate of melanin synthesis in melanocytes (summary in words of Table 3)
COc1cc(/C=C/C(=O)O)cc(OC)c1OC(C)=O [example 1, 3,5-dimethoxy-4-acetoxy-cinnamic acid] | 100 +/− 1 %/control | 86 +/− 2 %/control | 95 +/− 1 %/control | 67 +/− 2 %/control | 93 +/− 3 %/control | 26 +/− 1 %/control | 81 +/− 10 %/control | 19 +/− 2 %/control | without cell toxicity | decreased
CCOC(=O)/C(=C/c1cc(OC)c(O)c(OC)c1)C(C)=O [example 2] | – | – | 110 +/− 10 %/control | 108 +/− 3 %/control | 123 +/− 9 %/control | 54 +/− 6 %/control | – | – | without cell toxicity | –
